System: 885512-296-R-J2-PDC complex spheroid growth, % test/control
Assay: Anticancer human tumor 885512-296-R-J2-PDC patient-derived breast carcinoma cell line growth inhibition [Asc]
Conditions: for IC50: curve of first compound; for viability, T/C: stronger effect = lower value
Description: Multicellular complex tumor spheroid response to apoptosis pathway targeting inhibitors Alrizomadlin, Pelcitoclax, and Dasminapant in combination with a variety of drugs and investigational agents in selected tumor cell lines
The MDM2 inhibitor alrizomadlin, the Bcl-2/Bcl-xL inhibitor pelcitoclax, and the IAPs inhibitor dasminapant were evaluated both individually and in combination with standard of care and investigational anticancer small molecules within a complex spheroid model of solid tumors. . Complex spheroids include a stromal component modeled by human endothelial cells (HUVEC) and fibroblasts modeled by human mesenchymal stem cells (MSCs). The concentration ranges selected for each drug and investigational agent were based upon clinically achievable concentrations if the clinical Cmax of the agent was known.
Compounds. The drugs and investigational agents: alrizomadlin (APG-115; NSC831270), pelcitoclax (APG-1252; NSC835773), dasminapant (APG-1387;NSC834197), TAK-243 (NSC785004), copanlisib (NSC809693), olaparib (NSC753686), talazoparib (NSC767125), cobimetinib (NSC 768068), eltanexor (KPT-8602, NSC 794443), abemaciclib (NSC 768073), sotorasib (NSC818433), adagrasib (NSC 831453), MRTX-1133 (NSC 836407), Iadademestat (ORY1001, NSC 806812), and RMC-4630 (NSC839698), were obtained from the NCI Developmental Therapeutics Program Chemical Repository. The FDA-approved anticancer drug set is available from the Developmental Therapeutics Program at https://dtp.cancer.gov/organization/dscb/obtaining/available plates.htm. […] The stock solutions were prepared in dimethyl sulfoxide (DMSO, Sigma-Aldrich, St. Louis, MO, cat. D2650) at 800-fold the tested concentration and stored at -70 degrees C prior to their use. All drugs and investigational agents were tested over a range starting from a high concentration at or near the clinical Cmax and decreasing in half-log increments. If the clinical Cmax for an agent had not been determined, the highest concentration tested was 10 microM.
The patient-derived cancer (PDC) cell lines include five colon adenocarcinomas: 186277-243-T-J2-PDC, 616215-338-R-J1-PDC, 439559-082-T-J2-PDC, 463943-066-T-J2-PDC, and 519858-162-T-J1-PDC; three pancreatic carcinomas: 323965-272-R-J2-PDC, 521955-158-R6-J3-PDC, and 521955-158-R2-J5-PDC; two uterine sarcomas: 327498-152-R-J2-PDC and 993429-296-R-J1-PDC; two rhabdomyosarcomas: 755483-174-R-J1-PDC and 772245-204-R-J1-PDC; two soft tissue sarcomas: 126254-015-R-J1-PDC and 494315-158-R-J1-PDC; two malignant fibrous histiocytomas: 317291-083-R-J1-PDC and 596521-263-R-J1-PDC; two breast carcinomas: 171881-019-R-J1-PDC and 885512-296-R-J2-PDC; and one ovarian carcinoma: 6556581-035-R-J-PDC were obtained from the NCI PDMR, (https://pdmr.cancer.gov). The established cell lines HSSY-2 synovial sarcoma (RRID:CVCL 8719), SYO-1 synovial sarcoma (RRID:CVCL_7146), MPNST malignant peripheral neural sheath tumor were obtained from the Sloan Kettering Institute. The following established cell lines were purchased from the American Type Culture Collection (ATCC, Manassas, VA), Sor the received from the NCI repository:, PANC-1 pancreatic carcinoma (CRL-1469, RRID:CVCL_0480), OVCAR-5 ovarian carcinoma (RRID:CVCL_1628), OVCAR-8 ovarian carcinoma (RRID:CVCL_1629), , MCF-7 breast carcinoma (CRL-12584, RRID:CVCL_0031), MDA-MB-231 breast carcinoma (CRL-12532, RRID:CVCL_0062), NCI-H1876 small cell lung carcinoma (CRL-5902, RRID:CVCL_1503), NCI-H510A small cell lung carcinoma (HTB-184, RRID:CVCL_1565), NCI-H1417 (CRL-5869, RRID:CVCL_1469), and NCI-H196 small cell lung carcinoma (CRL-5823, RRID:CVCL_1509). Dr. Peter Houghton (Greehey Children's Cancer Research Institute, University of Texas Health Science Center, San Antonio, TX) provided Rh-18 rhabdomyosarcoma (RRID:CVCL_1659). Pooled donor human umbilical vein endothelial cells (HUVEC, Lonza, cat. CC-2519) and human mesenchymal stem cells (hMSC, Lonza, cat. PT-2501) were purchased from Lonza (Walkersville, MD).
Cell Culture. […]

[1] = second compound 0.03 µM, first compound 0.00316 µM
[2] = second compound 0.03 µM, first compound 0.01 µM
[3] = second compound 0.03 µM, first compound 0.0316 µM
[4] = second compound 0.03 µM, first compound 0.1 µM
[5] = second compound 0.0949 µM, first compound 0.00316 µM
[6] = second compound 0.0949 µM, first compound 0.01 µM
[7] = second compound 0.0949 µM, first compound 0.0316 µM
[8] = second compound 0.0949 µM, first compound 0.1 µM
[9] = second compound 0.3 µM, first compound 0.00316 µM
[10] = second compound 0.3 µM, first compound 0.01 µM
[11] = second compound 0.3 µM, first compound 0.0316 µM
[12] = second compound 0.3 µM, first compound 0.1 µM
[13] = second compound 0.949 µM, first compound 0.00316 µM
[14] = second compound 0.949 µM, first compound 0.01 µM
[15] = second compound 0.949 µM, first compound 0.0316 µM
[16] = second compound 0.949 µM, first compound 0.1 µM
[17] = second compound 3 µM, first compound 0.00316 µM
[18] = second compound 3 µM, first compound 0.01 µM
[19] = second compound 3 µM, first compound 0.0316 µM
[20] = second compound 3 µM, first compound 0.1 µM
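Further: spheroids exposed to compounds for seven days.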
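Wherever viability, T/C is given: 100% = DMSO vehicle control wells.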

With `CCN1CCN(Cc2ccc(Nc3ncc(F)c(-c4cc(F)c5nc(C)n(C(C)C)c5c4)n3)nc2)CC1` + CCN1C(C(=O)NC23CCC(C(=O)O)(CC2)CC3)C(c2cccc(Cl)c2F)C2(C(=O)Nc3cc(Cl)ccc32)C12CCCCC2 the IC50 (second compound 0.03 µM) was over 1 µM, the IC50 (second compound 0.0949 µM) was over 1 µM and the IC50 (second compound 0.3 µM) was over 1 µM. It also gave an IC50 (second compound 0.949 µM) of over 1 µM, an IC50 (second compound 3 µM) of under 0.00316 µM and a viability, T/C [1] of 98.5%. For the same compound, the viability, T/C [2] was 101%, the viability, T/C [3] was 81.3% and the viability, T/C [4] was 76.4%. The viability, T/C (second compound 0.03 µM, first compound 0.316 µM) was 79.1%, the viability, T/C (second compound 0.03 µM, first compound 1 µM) was 62% and the viability, T/C [5] was 96.1%. For the same compound, the viability, T/C [6] was 91.8%, the viability, T/C [7] was 80.5% and the viability, T/C [8] was 64.1%. For the same compound, the viability, T/C (second compound 0.0949 µM, first compound 0.316 µM) was 80.8%, the viability, T/C (second compound 0.0949 µM, first compound 1 µM) was 59.9% and the viability, T/C [9] was 74.2%. The viability, T/C [10] was 90.3%, the viability, T/C [11] was 75.2% and the viability, T/C [12] was 69%. It also gave a viability, T/C (second compound 0.3 µM, first compound 0.316 µM) of 66%, a viability, T/C (second compound 0.3 µM, first compound 1 µM) of 56.3% and a viability, T/C [13] of 69.7%. It also gave a viability, T/C [14] of 58.7%, a viability, T/C [15] of 60.3% and a viability, T/C [16] of 50.5%. The viability, T/C (second compound 0.949 µM, first compound 0.316 µM) was 50.4%, the viability, T/C (second compound 0.949 µM, first compound 1 µM) was 54.9% and the viability, T/C [17] was 41.1%. The viability, T/C [18] was 35.3%, the viability, T/C [19] was 40.8% and the viability, T/C [20] was 38.7%. The viability, T/C (second compound 3 µM, first compound 0.316 µM) was 37.3% and the viability, T/C (second compound 3 µM, first compound 1 µM) was 39.4%.
`NC(=O)C(=Cn1cnc(-c2cc(C(F)(F)F)cc(C(F)(F)F)c2)n1)c1cncnc1` + CCN1C(C(=O)NC23CCC(C(=O)O)(CC2)CC3)C(c2cccc(Cl)c2F)C2(C(=O)Nc3cc(Cl)ccc32)C12CCCCC2 gave an IC50 (second compound 0.03 µM) of 0.0451 µM, an IC50 (second compound 0.0949 µM) of 0.044 µM and an IC50 (second compound 0.3 µM) of 0.0429 µM. The IC50 (second compound 0.949 µM) was 0.0394 µM, the IC50 (second compound 3 µM) was 0.000949 µM and the viability, T/C (second compound 0.03 µM, first compound 0.000949 µM) was 108%. It also gave a viability, T/C (second compound 0.03 µM, first compound 0.003 µM) of 95.1%, a viability, T/C (second compound 0.03 µM, first compound 0.00949 µM) of 111% and a viability, T/C (second compound 0.03 µM, first compound 0.03 µM) of 72.4%. It also gave a viability, T/C (second compound 0.03 µM, first compound 0.0949 µM) of 9.51%, a viability, T/C (second compound 0.03 µM, first compound 0.3 µM) of 1.11% and a viability, T/C (second compound 0.0949 µM, first compound 0.000949 µM) of 98.6%. For the same compound, the viability, T/C (second compound 0.0949 µM, first compound 0.003 µM) was 93.7%, the viability, T/C (second compound 0.0949 µM, first compound 0.00949 µM) was 113% and the viability, T/C (second compound 0.0949 µM, first compound 0.03 µM) was 72.2%. For the same compound, the viability, T/C (second compound 0.0949 µM, first compound 0.0949 µM) was 6.79%, the viability, T/C (second compound 0.0949 µM, first compound 0.3 µM) was 0.89% and the viability, T/C (second compound 0.3 µM, first compound 0.000949 µM) was 74.4%. The viability, T/C (second compound 0.3 µM, first compound 0.003 µM) was 91%, the viability, T/C (second compound 0.3 µM, first compound 0.00949 µM) was 92.2% and the viability, T/C (second compound 0.3 µM, first compound 0.03 µM) was 69.3%. The viability, T/C (second compound 0.3 µM, first compound 0.0949 µM) was 6.76%, the viability, T/C (second compound 0.3 µM, first compound 0.3 µM) was 0.83% and the viability, T/C (second compound 0.949 µM, first compound 0.000949 µM) was 70.3%. The viability, T/C (second compound 0.949 µM, first compound 0.003 µM) was 72.2%, the viability, T/C (second compound 0.949 µM, first compound 0.00949 µM) was 80.9% and the viability, T/C (second compound 0.949 µM, first compound 0.03 µM) was 63.4%. The viability, T/C (second compound 0.949 µM, first compound 0.0949 µM) was 6.15%, the viability, T/C (second compound 0.949 µM, first compound 0.3 µM) was 1.27% and the viability, T/C (second compound 3 µM, first compound 0.000949 µM) was 42.7%. The viability, T/C (second compound 3 µM, first compound 0.003 µM) was 48.9%, the viability, T/C (second compound 3 µM, first compound 0.00949 µM) was 48.3% and the viability, T/C (second compound 3 µM, first compound 0.03 µM) was 55%. It also gave a viability, T/C (second compound 3 µM, first compound 0.0949 µM) of 4.94% and a viability, T/C (second compound 3 µM, first compound 0.3 µM) of 0.76%.
In the case of `NC1CCC(NC2CC2c2ccccc2)CC1` (stereo not given) + CCN1C(C(=O)NC23CCC(C(=O)O)(CC2)CC3)C(c2cccc(Cl)c2F)C2(C(=O)Nc3cc(Cl)ccc32)C12CCCCC2, the IC50 (second compound 0.03 µM) is reported as over 0.1 µM, the IC50 (second compound 0.0949 µM) is reported as over 0.1 µM and the IC50 (second compound 0.3 µM) is reported as over 0.1 µM. It also gave an IC50 (second compound 0.949 µM) of over 0.1 µM, an IC50 (second compound 3 µM) of over 0.1 µM and a viability, T/C (second compound 0.03 µM, first compound 0.000316 µM) of 116%. It also gave a viability, T/C (second compound 0.03 µM, first compound 0.001 µM) of 129%, a viability, T/C [1] of 120% and a viability, T/C [2] of 123%. The viability, T/C [3] was 125%, the viability, T/C [4] was 118% and the viability, T/C (second compound 0.0949 µM, first compound 0.000316 µM) was 117%. The viability, T/C (second compound 0.0949 µM, first compound 0.001 µM) was 123%, the viability, T/C [5] was 127% and the viability, T/C [6] was 114%. The viability, T/C [7] was 124%, the viability, T/C [8] was 119% and the viability, T/C (second compound 0.3 µM, first compound 0.000316 µM) was 108%. It also gave a viability, T/C (second compound 0.3 µM, first compound 0.001 µM) of 116%, a viability, T/C [9] of 118% and a viability, T/C [10] of 108%. It also gave a viability, T/C [11] of 118%, a viability, T/C [12] of 118% and a viability, T/C (second compound 0.949 µM, first compound 0.000316 µM) of 99.8%. For the same compound, the viability, T/C (second compound 0.949 µM, first compound 0.001 µM) was 102%, the viability, T/C [13] was 104% and the viability, T/C [14] was 99.7%. It also gave a viability, T/C [15] of 103%, a viability, T/C [16] of 104% and a viability, T/C (second compound 3 µM, first compound 0.000316 µM) of 66.5%. It also gave a viability, T/C (second compound 3 µM, first compound 0.001 µM) of 62.2%, a viability, T/C [17] of 62.2% and a viability, T/C [18] of 70.7%. The viability, T/C [19] was 71.4% and the viability, T/C [20] was 74.8%.
